In ChEMBL document CHEMBL3779887, “Robenidine Analogues as Gram-Positive Antibacterial Agents” (J Med Chem, 2016):
Values after ≈ are worked out from the molar mass of the structure shown. Active and inactive are the calls of the source. The calls are words filed in the database; no cut-off is given here.

Experiments:
[1] = Toxicity in po dosed rat; type: organism-based; conditions: in vivo
[2] = Selectivity index, ratio of GI50 for human HepG2 cells to MIC50 for methicillin-sensitive Staphylococcus aureus clinical isolate; type: functional
Staphylococcus aureus [3] = assay: Bactericidal activity against […] Staphylococcus aureus clinical isolate USA300 assessed as log reduction in bacterial cell number at 8 times MIC after 24 hrs by time-kill curve analysis; type: functional, organism-based
Pseudomonas aeruginosa [4] = assay: Antibacterial activity against Pseudomonas aeruginosa ATCC 27853 after 20 to 24 hrs in presence of polymyxin B nonapeptide; type: functional
Pseudomonas aeruginosa [5] = assay: Antibacterial activity against Pseudomonas aeruginosa ATCC 27853 after 20 to 24 hrs; type: functional
[6] = Metabolic stability in human liver microsomes assessed as compound loss after 60 mins; type: ADME; conditions: read-out: Drug degradation
[7] = Half life of compound in human liver microsomes; type: ADME
Staphylococcus aureus [8] = assay: Bactericidal activity against Methicillin-sensitive Staphylococcus aureus ATCC 29213 assessed as log reduction in bacterial cell number at 4 times MIC after 24 hrs by time kill curve analysis; type: functional, organism-based
Staphylococcus aureus [9] = assay: Antibacterial activity against methicillin-sensitive Staphylococcus aureus ATCC 29213 after 20 to 24 hrs in presence of 50% heat inactivated bovine serum
Escherichia coli [10] = assay: Antibacterial activity against Escherichia coli ATCC 25922 after 20 to 24 hrs; type: functional
[11] = Solubility of the compound at pH 2; type: physicochemical; conditions: buffer
[12] = Cytotoxicity against human HEL299 cells after 24 hrs by WST-1 based colorimetric assay; type: cell-based, HEL 299
Staphylococcus aureus [13] = assay: Bactericidal activity against […] Staphylococcus aureus clinical isolate USA300 assessed as log reduction in bacterial cell number at 2 times MIC after 24 hrs by time-kill curve analysis; type: functional, organism-based
Staphylococcus aureus [14] = assay: Inhibition of biofilm formation in methicillin-resistant Staphylococcus aureus after 24 hrs by MBEC assay; type: functional
Staphylococcus aureus [15] = assay: Ratio of MBC for methicillin-sensitive Staphylococcus aureus ATCC 29213 to MIC90 for methicillin-sensitive Staphylococcus aureus ATCC 29213; type: functional
[16] = Cytotoxicity against human HepG2 cells after 24 hrs by WST-1 based colorimetric assay; type: cell-based
Staphylococcus aureus [17] = assay: Bactericidal activity against methicillin-sensitive Staphylococcus aureus ATCC 25923 after 24 and 48 hrs; type: functional
Staphylococcus aureus [18] = assay: Antibacterial activity against methicillin-sensitive Staphylococcus aureus ATCC 25923 after 20 to 24 hrs; type: functional
Staphylococcus aureus [19] = assay: Antibacterial activity against methicillin-sensitive Staphylococcus aureus ATCC 29213 after 20 to 24 hrs in presence of 50% heat inactivated bovine serum; remark: listed apart in the source
[20] = Selectivity index, ratio of GI50 for human HepG2 cells to MIC50 for methicillin-resistant Staphylococcus aureus clinical isolate; type: functional
Staphylococcus aureus [21] = assay: Bactericidal activity against methicillin-sensitive Staphylococcus aureus ATCC 29213 after 24 and 48 hrs; type: functional
Staphylococcus aureus [22] = assay: Antibacterial activity against methicillin-resistant Staphylococcus aureus clinical isolate after 20 to 24 hrs; type: functional
Staphylococcus aureus [23] = assay: Antibacterial activity against methicillin-sensitive Staphylococcus aureus ATCC 6538 after 20 to 24 hrs; type: functional
Staphylococcus aureus [24] = assay: Bactericidal activity against Methicillin-sensitive Staphylococcus aureus ATCC 29213 assessed as log reduction in bacterial cell number at 2 times MIC after 24 hrs by time kill curve analysis; type: functional, organism-based
Staphylococcus aureus [25] = assay: Bactericidal activity against methicillin-sensitive Staphylococcus aureus clinical isolate USA300 assessed as log reduction in bacterial cell number at MIC after 8 hrs by time-kill curve analysis; type: functional
Babesia microti = assay: Antiprotozoal activity against Babesia microti ATCC PRA-99 infected in BALB/c mouse assessed as suppression of parasitemia at 25 and 50 mg/kg, administered 4 times daily; type: functional
Escherichia coli [26] = assay: Ratio of MIC90 for Escherichia coli ATCC 25922 to MIC90 for Escherichia coli ATCC 25922 in presence of polymyxin B nonapeptide; type: functional
Staphylococcus aureus [27] = assay: Bactericidal activity against […] Staphylococcus aureus clinical isolate USA300 assessed as log reduction in bacterial cell number at 4 times MIC after 8 hrs by time-kill curve analysis; type: functional
Staphylococcus aureus [28] = assay: Ratio of MBC for methicillin-sensitive Staphylococcus aureus ATCC 49775 to MIC90 for methicillin-sensitive Staphylococcus aureus ATCC 49775; type: functional
Staphylococcus aureus [29] = assay: Bactericidal activity against methicillin-sensitive Staphylococcus aureus ATCC 29213 assessed as log reduction in bacterial cell number at 2 times MIC after 8 hrs by time-kill curve analysis; type: functional
Staphylococcus aureus [30] = assay: Ratio of MBC for methicillin-sensitive Staphylococcus aureus ATCC 25923 to MIC90 for methicillin-sensitive Staphylococcus aureus ATCC 25923; type: functional
Staphylococcus aureus [31] = assay: Antibacterial activity against methicillin-resistant Staphylococcus aureus after 20 to 24 hrs; type: functional
[32] = Solubility of the compound at pH 6.5; type: physicochemical; conditions: buffer
[33] = Toxicity in po dosed female rabbit; type: organism-based, Oryctolagus cuniculus; conditions: in vivo
Staphylococcus aureus [34] = assay: Bactericidal activity against […] Staphylococcus aureus clinical isolate USA300 assessed as log reduction in bacterial cell number at 2 times MIC after 8 hrs by time-kill curve analysis; type: functional
[35] = Intrinsic clearance in human liver microsomes assessed per mg of protein; type: ADME; conditions: read-out: CLH
Pseudomonas aeruginosa [36] = assay: Ratio of MIC90 for Pseudomonas aeruginosa ATCC 27853 to MIC90 for Pseudomonas aeruginosa ATCC 27853 in presence of polymyxin B nonapeptide; type: functional
[37] = Intrinsic clearance in mouse liver microsomes assessed per mg of protein; type: ADME; conditions: read-out: CLH
Enterococcus = assay: Antibacterial activity against vancomycin-resistant Enterococcus after 20 to 24 hrs; type: functional
Staphylococcus aureus [38] = assay: Bactericidal activity against methicillin-resistant Staphylococcus aureus clinical isolate after 24 and 48 hrs; type: functional
Escherichia coli [39] = assay: Antibacterial activity against Escherichia coli ATCC 25922 after 20 to 24 hrs in presence of polymyxin B nonapeptide; type: functional
Staphylococcus aureus [40] = assay: Bactericidal activity against Methicillin-sensitive Staphylococcus aureus ATCC 29213 assessed as log reduction in bacterial cell number at MIC after 8 hrs by time kill curve analysis
[41] = Toxicity in sheep erythrocytes assessed as hemolysis after 30 mins; type: cell-based, Ovis aries; conditions: erythrocyte, 0.5 h
Staphylococcus aureus [42] = assay: Antibacterial activity against methicillin-sensitive Staphylococcus aureus ATCC 49775 after 20 to 24 hrs; type: functional
Staphylococcus aureus [43] = assay: Antibacterial activity against methicillin-sensitive Staphylococcus aureus ATCC 29213 after 20 to 24 hrs; type: functional
[44] = Selectivity index, ratio of GI50 for human HEL299 cells to MIC50 for methicillin-sensitive Staphylococcus aureus clinical isolate; type: functional, HEL 299
Staphylococcus aureus [45] = assay: Antibacterial activity against methicillin-sensitive Staphylococcus aureus ATCC 49775 after 20 to 24 hrs in presence of 50% heat inactivated bovine serum; type: functional
Staphylococcus aureus [46] = assay: Antibacterial activity against methicillin-sensitive Staphylococcus aureus ATCC 29213 after 20 to 24 hrs in presence of 50% heat inactivated bovine serum; type: functional
Staphylococcus aureus [47] = assay: Inhibition of biofilm formation in methicillin-resistant Staphylococcus aureus assessed as log reduction at > 43.2 uM after 24 hrs by MBEC assay relative to control; type: functional

N=C(N/N=C/c1ccc(Cl)cc1)N/N=C/c1ccc(Cl)cc1 [ROBENIDINE]
LD50 [1]: 3000 mg/kg
Selectivity Index [2]: 2
Activity (Staphylococcus aureus [3]): inactive
MIC90 (Pseudomonas aeruginosa [4]): 21.6 µM
MIC (Pseudomonas aeruginosa [5]): > 400 µM
metabolised at 1 h [6]: < 15%
half-life [7]: > 4.12 h
Activity (Staphylococcus aureus [8]): inactive
MIC90 (Staphylococcus aureus [9]): > 250 µM
MIC (Escherichia coli [10]): > 400 µM
solubility [11]: 6.3 µg/mL (≈ 18.9 µM)
GI50 at 24 h [12]: 17.7 µM
Activity (Staphylococcus aureus [13]): inactive
INH (Staphylococcus aureus [14]): >43.2 µM
Ratio (Staphylococcus aureus [15]): 1
GI50 at 24 h [16]: 25.4 µM
MBC (Staphylococcus aureus [17]): 5.4 µM (≈ 1.8 µg/mL)
MIC90 (Staphylococcus aureus [18]): 5.4 µM (≈ 1.8 µg/mL)
MIC90 (Staphylococcus aureus [19]): > 250 µM
Selectivity Index [20]: 2
MBC (Staphylococcus aureus [21]): 5.4 µM (≈ 1.8 µg/mL)
MIC90 (Staphylococcus aureus [22]): 5.4 µM (≈ 1.8 µg/mL)
MIC90 (Staphylococcus aureus [23]): 5.4 µM (≈ 1.8 µg/mL)
Activity (Staphylococcus aureus [24]): inactive
Activity (Staphylococcus aureus [25]): >=4 log10CFU/ml
inhibition (INH) (Babesia microti): 100%
Ratio (Escherichia coli [26]): 10
Activity (Staphylococcus aureus [27]): >=4 log10CFU/ml
Ratio (Staphylococcus aureus [28]): 1
Activity (Staphylococcus aureus [29]): >=4 log10CFU/ml
Ratio (Staphylococcus aureus [30]): 1
MIC (Staphylococcus aureus [31]): 8.1 µM (≈ 2.71 µg/mL)
solubility [32]: < 1.6 µg/mL
LD50 [33]: 2900 mg/kg
Activity (Staphylococcus aureus [34]): >=4 log10CFU/ml
microsomal CLint [35]: < 7 µL/min/mg
Ratio (Pseudomonas aeruginosa [36]): 10
microsomal CLint [37]: < 7 µL/min/mg
MIC (Enterococcus): 4.7 µM (≈ 1.57 µg/mL)
MBC (Staphylococcus aureus [38]): 5.4 µM (≈ 1.8 µg/mL)
MIC90 (Escherichia coli [39]): 21.6 µM
Activity (Staphylococcus aureus [40]): inactive
Activity [41]: >= 173 uM
MIC90 (Staphylococcus aureus [42]): 5.4 µM (≈ 1.8 µg/mL)
MIC90 (Staphylococcus aureus [43]): 5.4 µM (≈ 1.8 µg/mL)
Selectivity Index [44]: 2
MIC90 (Staphylococcus aureus [45]): > 250 µM
MIC90 (Staphylococcus aureus [46]): > 250 µM
FC (Staphylococcus aureus [47]): <=3
